Here are results for 61 molecules from a melting point compilation (Tetko et al.; mined from patent text by program, amines drawn as free bases though some values may be those of a salt).

Where only a bound is given, the exact number is not on record here.

`O=C(Oc1cccc2cnccc12)c1cc2ccccc2oc1=O` displayed a melting point of 190 to 193 °C.
Next, `CC(C)CC(NC(=O)C1CCCN1)C(=O)NCC(=O)Oc1c(Cl)c(Cl)c(Cl)c(Cl)c1Cl` (stereo unspecified): 169 to 171 °C; `CCc1c(N)cccc1NC(=O)c1ccc(Br)cc1`: 169 to 170 °C; `COC(=O)Cc1cccc(NC(=O)NCC(=O)N2[C@@H](C(=O)N3CCCC3)C[C@H](S(=O)(=O)c3ccccc3)[C@H]2c2ccccc2F)c1` (racemic): 156 °C.
As for `COCCCNS(=O)(=O)NC(=O)/C(C)=C/c1ccc(OCCOC)cc1Oc1ncc(C(F)(F)F)cc1Cl`, the melting point is 121 to 122 °C.
Next, `O=C(CCc1cnoc1-c1ccccc1)Nc1nc(-c2ccc(Cl)cc2)cs1`: 172 to 173 °C; `O[C@@H](COc1cccc(-c2noc3ccsc23)c1)CN1CCN(c2ccccc2Cl)CC1`: 83 to 86 °C.
In turn, `CC(C)c1cc(C(C)C)c(CC(=O)NS(=O)(=O)Oc2c(C(C)C)cc(SC#N)cc2C(C)C)c(C(C)C)c1` returned a melting point of 164 to 165 °C.
In the case of `Cc1nc(N2CCC(c3ccc(F)cc3)CC2)c([N+](=O)[O-])c(=O)n1CCCCO` it was 154 to 156 °C; in that of `CC(C)n1c(C=O)c(-c2ccc(F)cc2)c(-c2ccccc2)c1C(=O)NCCc1cccnc1`, 192 to 194 °C.
In the case of `CCn1nc(C(F)(F)F)c(CS(=O)(=O)C2=NOC(C)(CCl)C2)c1OC` (stereo unspecified) it was 139 to 140 °C; in that of `CC(=NC(=Nc1ccccc1)N1CCOCC1)NC(C)C`, 142 to 145 °C; in that of `Cc1c(NC(=O)c2ccc(-c3ccc(F)cc3F)cc2)ccc2cc(CN3CCCC3)cnc12`, 177 to 179 °C.
In the case of `COc1ccc(Br)c(COc2cccc3cc(OC)ccc23)c1` it was 83 to 84 °C.
`CC(C)(C)NC(=O)c1nn(-c2c(F)cc(F)cc2F)c2c1C1CCC2C1` (stereo unspecified) returned a melting point of 142 to 146 °C.
With `CCN(CC)c1nc(C)cc(O)n1`, the melting point lay in the range of 131 to 132 °C.
The molecule `COC(=O)C(C)(C)OCC#Cc1cc(Cl)ccc1NS(=O)(=O)c1ccc2c(c1)OCCN2C` came in with a melting point of 98 to 100 °C.
With `CCOC(=O)CNC(=O)CCC(=O)OC`, the melting point was 61 to 62 °C.
In the case of `N#CN=c1[nH]c2c([N+](=O)[O-])c(Cl)c(Cl)cc2nc1Cl`, the melting point was in the range of 245 to 255 °C.
Next, `O=C1CC(NC(=O)C2CCCN3C(=O)CCC(NC(=O)c4ccccc4)C(=O)N23)C(OC2Cc3ccccc3C2)O1` (stereo unspecified): 140 °C.
In the case of `O=C1OCCC1NC(c1ccccc1)(c1ccccc1)c1ccccc1` (stereo unspecified) it was 164 to 166 °C; in that of `COC(=O)Cc1cc2c(cc1CC(=O)NCCc1ccc(OC)c(OC)c1)OCO2`, 122 to 125 °C; in that of `CCOC(=O)c1csc(-c2cc3cccc(NS(=O)(=O)c4cccs4)c3[nH]2)n1`, 240 to 241 °C.
In the case of `CCOC(=O)c1sc(C(=O)OCC)c2c1OCC(CC)(CC)CO2` it was 100 °C; in that of `O=C(O)C=C1CCCCC1Cc1ccccc1` (racemic), 98 to 100 °C.
For the molecule `CC(C)(C)c1cc(/C=C/C(=O)O)n(Cc2ccc(C(F)(F)F)cc2Cl)n1`, the melting point fell in the range of 175 to 176 °C.
The molecule `CCOC(=O)c1cccn2c(C#N)c(-c3ccccc3)nc12` registered a melting point of 87 to 89 °C.
The molecule `COC(=O)c1[nH]c2ccccc2c1Oc1ccccc1N` had a melting point of 183 to 184 °C.
In the case of `CC(=O)Oc1ccc(C(=O)O)cc1Cl` it was 152 to 159 °C; in that of `CCC(C)C(CO)NC(=O)CC(O)C(CC(C)C)NC(=O)C(Cc1cscn1)NC(=O)C(Cc1cccc2ccccc12)NC(=O)OCc1ccccc1` (mixture of isomers), 167 to 169 °C; in that of `CCOC(=O)c1ccc2nc(NC(C)=O)n(S(=O)(=O)N(C)C)c2c1`, 155 to 157 °C.
In the case of `OC(=S)C=Cc1cccc2ccccc12` it was 102 to 103 °C.
Next, `CC1C(O)C(C(C)(C)O)C(=O)N1c1ccc(C#N)c(Cl)c1` (stereo unspecified): 131 to 132 °C.
In the case of `CN(C)Cc1ccc2oc(-c3ccc(O)cc3)cc(=O)c2c1`, the melting point fell in the range of 99 to 102 °C.
Next, `O=C(COc1ccc(-c2ccc(F)cc2)cc1)Nc1cscc1C(=O)O`: 244 to 251 °C; `Cc1ccc(-c2cc(F)cc3c2NC(CN)CO3)c(C(F)(F)F)c1` (stereo unspecified): 86 °C.
Next, `CCc1nc2c(n1C(CC)CC)C(=O)N(C)CN2c1ccc(OC)cc1Cl`: 184 to 185 °C.
In the case of `O=C(C=Cc1ccccc1)N1CCc2c([nH]c3ccccc23)C12CCC(c1cccc(F)c1)(N1CCC1)CC2` (stereo unspecified) it was 120 to 126 °C.
Turning to `Cc1cc(C(F)(F)F)n2nc(S(=O)(=O)Nc3c(Cl)cccc3Cl)nc2n1`, the melting point is 237 to 239 °C.
Take `ClC(c1ccccc1)c1ccc(C2CCCCC2)cc1` (stereo unspecified): the melting point is 75 °C.
Regarding `Clc1ccc(-c2c(Cl)nc(Cl)nc2-c2ccccc2)cc1`, the melting point lay within 123 to 125 °C.
In turn, `COc1ccc2c(c1)c1cc(OC)ccc1c1[nH]c(S(=O)(=O)C(F)(F)F)nc21` showed a melting point of 228 to 231 °C.
Turning to `c1ccc2c(c1)c(-c1nnn[nH]1)cc1nnnn12`, the melting point was 250 to 251 °C.
Next, `C/C(C=O)=C\COc1cccc(O)c1`: 136 to 138 °C.
Take `CCN1C(=O)C(C)(C)C(=O)N(C)c2cc(OCCCN3C(=O)C(c4ccccc4)Cc4ccccc43)ccc21` (stereo unspecified): the melting point was 100 to 105 °C.
Turning to `CCn1ncc2c1ncc1c(=O)[nH]c3ncnn3c12`, the melting point lay within 175 to 177 °C.
Next, `Cc1[nH]c(=S)n(Nc2cccc([N+](=O)[O-])c2)c1-c1ccccc1`: 214 °C; `Cc1ccccc1N=C=Nc1ccccc1C`: 3.5 to 4.5 °C; `COc1ccc(Cc2ncc(C(=O)O)c3cc(OC)c(OC)cc23)cc1OC`: 235 to 236 °C.
In the case of `CC(C)(C)c1cc(-c2cc(-c3ccc(C(=O)O)cc3)ccc2OCCO)ccc1N1CCCC1`, the melting point was 223 °C.
Molecule `Cc1ccc2c(c1)Oc1sc(C)cc1C(N1CCN(C)CC1)=N2` showed a melting point of 149 to 150 °C.
The molecule `COC(=O)c1cc(Nc2ccc(C)cc2)c(C(=O)OC)cc1Nc1ccc(C)cc1` displayed a melting point of 205 to 207 °C.
`O=C1C=C(NC(=O)C(=O)c2cn(Cc3c(F)cccc3Cl)c3ccccc23)CO1` registered a melting point greater than 270 °C.
`NC(=O)N(O)[C@H]1CC[C@H](c2cccc(F)c2)C1` (relative stereo) came in with a melting point of 113 to 114 °C.
In the case of `O=C(O)C1=Cc2cc(Cl)c(Oc3ccc(C(F)(F)F)cc3)cc2OC1C(F)(F)F` (stereo unspecified) it was 231 to 232 °C; in that of `COc1cc(CCl)ccc1OCCCCOc1ccc(CCl)cc1OC`, 116 to 118 °C.
Next, `CC(C)N(O)C(=O)CCC1C=CC2=C(Cc3ccccc3CO2)C1=O` (stereo unspecified): 118 °C.
In the case of `COc1ccc(C(C#N)=NO)cc1OC`, the melting point is 183 to 191 °C.
Next, `CC(C)(OCc1nn(Cc2ccccc2)c2ccccc12)C(=O)NCC(=O)O`: 157 to 158 °C; `CC(=O)c1c[nH]c2nccc(-c3ccccc3)c12`: greater than 210 °C; `CCCCCC(CC(=O)Nc1c(C(C)C)cccc1C(C)C)c1cccc2c1OCO2` (stereo unspecified): 114 to 115 °C.

What is called melting point is the temperature, or range, at which the solid turns liquid.
